Experimental data: PubChem BioAssay (NCI)
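1) Cells in 96-well plates. 2) Compound, 48 h, 5 concentrations. 3) Linear interpolation between surrounding doses. 4) Unreached endpoint = highest concentration. The concentration for full growth arrest is given as TGI.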

How the values were obtained:
Experiment in all cases: NCI-60 cell line screen, 48 h
786-0 renal = test system: 786-0 renal
A498 renal = test system: A498 renal
A549 NSCLC = test system: A549 NSCLC
ACHN renal = test system: ACHN renal
BT-549 breast = test system: BT-549 breast
CAKI-1 renal = test system: CAKI-1 renal
CCRF-CEM leukemia = test system: CCRF-CEM leukemia
COLO 205 colon = test system: COLO 205 colon
DU-145 prostate = test system: DU-145 prostate
EKVX NSCLC = test system: EKVX NSCLC
HCC-2998 colon = test system: HCC-2998 colon
HCT-116 colon = test system: HCT-116 colon
HCT-15 colon = test system: HCT-15 colon
HL-60(TB) leukemia = test system: HL-60(TB) leukemia
HOP-62 NSCLC = test system: HOP-62 NSCLC
HOP-92 NSCLC = test system: HOP-92 NSCLC
HS 578T breast = test system: HS 578T breast
HT29 colon = test system: HT29 colon
IGROV1 ovarian = test system: IGROV1 ovarian
K-562 leukemia = test system: K-562 leukemia
KM12 colon = test system: KM12 colon
LOX IMVI melanoma = test system: LOX IMVI melanoma
M14 melanoma = test system: M14 melanoma
MALME-3M melanoma = test system: MALME-3M melanoma
MCF7 breast = test system: MCF7 breast
MDA-MB-231 breast = test system: MDA-MB-231 breast
MDA-MB-435 = test system: MDA-MB-435
MDA-N = test system: MDA-N
MOLT-4 leukemia = test system: MOLT-4 leukemia
NCI-H226 lung = test system: NCI-H226 lung
NCI-H23 lung = test system: NCI-H23 lung
NCI-H460 lung = test system: NCI-H460 lung
NCI-H522 lung = test system: NCI-H522 lung
NCI/ADR-RES ovarian = test system: NCI/ADR-RES ovarian
OVCAR-3 ovarian = test system: OVCAR-3 ovarian
OVCAR-4 ovarian = test system: OVCAR-4 ovarian
OVCAR-5 ovarian = test system: OVCAR-5 ovarian
OVCAR-8 ovarian = test system: OVCAR-8 ovarian
PC-3 prostate = test system: PC-3 prostate
RPMI-8226 leukemia = test system: RPMI-8226 leukemia
RXF 393 renal = test system: RXF 393 renal
SF-268 CNS = test system: SF-268 CNS
SF-295 CNS = test system: SF-295 CNS
SF-539 CNS = test system: SF-539 CNS
SK-MEL-2 melanoma = test system: SK-MEL-2 melanoma
SK-MEL-28 melanoma = test system: SK-MEL-28 melanoma
SK-MEL-5 melanoma = test system: SK-MEL-5 melanoma
SK-OV-3 ovarian = test system: SK-OV-3 ovarian
SN12C renal = test system: SN12C renal
SNB-19 CNS = test system: SNB-19 CNS
SNB-75 CNS = test system: SNB-75 CNS
SR leukemia = test system: SR leukemia
SW-620 colon = test system: SW-620 colon
T-47D breast = test system: T-47D breast
TK-10 renal = test system: TK-10 renal
U251 CNS = test system: U251 CNS
UACC-257 melanoma = test system: UACC-257 melanoma
UACC-62 melanoma = test system: UACC-62 melanoma
UO-31 renal = test system: UO-31 renal

O=C(Nc1nnc(-c2ccc(Cl)cc2)o1)C(SC(=S)N1CCCCC1)c1ccccc1 (stereo not drawn)
TGI (786-0 renal): > 78.2 µM | TGI (A498 renal): 44.4 µM | TGI (A549 NSCLC): 56.8 µM | TGI (ACHN renal): 66.5 µM | TGI (BT-549 breast): > 86.7 µM | TGI (CAKI-1 renal): > 100 µM | TGI (CCRF-CEM leukemia): > 43.5 µM | TGI (COLO 205 colon): > 100 µM | TGI (DU-145 prostate): > 100 µM | TGI (EKVX NSCLC): 54.1 µM | TGI (HCC-2998 colon): 76.8 µM | TGI (HCT-116 colon): 34.8 µM | TGI (HCT-15 colon): > 81.5 µM | TGI (HL-60(TB) leukemia): 26.2 µM | TGI (HOP-62 NSCLC): > 100 µM | TGI (HOP-92 NSCLC): > 63.3 µM | TGI (HS 578T breast): 85 µM | TGI (HT29 colon): > 75.3 µM | TGI (IGROV1 ovarian): > 65.6 µM | TGI (K-562 leukemia): > 88 µM | TGI (KM12 colon): > 100 µM | TGI (LOX IMVI melanoma): > 50.6 µM | TGI (M14 melanoma): 32.1 µM | TGI (MALME-3M melanoma): 36.6 µM | TGI (MCF7 breast): 49.9 µM | TGI (MDA-MB-231 breast): 69.8 µM | TGI (MDA-MB-435): 97.6 µM | TGI (MDA-N): 37.2 µM | TGI (MOLT-4 leukemia): 12.3 µM | TGI (NCI-H226 lung): 85.2 µM | TGI (NCI-H23 lung): > 76.8 µM | TGI (NCI-H460 lung): 31.6 µM | TGI (NCI-H522 lung): 37.7 µM | TGI (NCI/ADR-RES ovarian): > 68.2 µM | TGI (OVCAR-3 ovarian): > 72.6 µM | TGI (OVCAR-4 ovarian): > 100 µM | TGI (OVCAR-5 ovarian): 64.2 µM | TGI (OVCAR-8 ovarian): > 100 µM | TGI (PC-3 prostate): > 100 µM | TGI (RPMI-8226 leukemia): 38.2 µM | TGI (RXF 393 renal): > 75.9 µM | TGI (SF-268 CNS): 61.1 µM | TGI (SF-295 CNS): > 100 µM | TGI (SF-539 CNS): > 84.2 µM | TGI (SK-MEL-2 melanoma): 52.6 µM | TGI (SK-MEL-28 melanoma): 56.3 µM | TGI (SK-MEL-5 melanoma): 32.5 µM | TGI (SK-OV-3 ovarian): > 100 µM | TGI (SN12C renal): 41.6 µM | TGI (SNB-19 CNS): > 100 µM | TGI (SNB-75 CNS): > 100 µM | TGI (SR leukemia): 16.2 µM | TGI (SW-620 colon): > 100 µM | TGI (T-47D breast): > 100 µM | TGI (TK-10 renal): > 100 µM | TGI (U251 CNS): > 100 µM | TGI (UACC-257 melanoma): > 70.4 µM | TGI (UACC-62 melanoma): 31.8 µM | TGI (UO-31 renal): 27.8 µM

C=CCCCCNC(=O)C[C@@H]1C2=C(CC[C@H]1O[Si](C)(C)C(C)(C)C)N1C(=O)CCC/C=C\C1C2 (stereo partly drawn)
TGI (786-0 renal): 28.7 µM | TGI (A498 renal): 28.4 µM | TGI (A549 NSCLC): 25.8 µM | TGI (ACHN renal): 28.7 µM | TGI (BT-549 breast): 30.1 µM | TGI (CAKI-1 renal): 24.8 µM | TGI (CCRF-CEM leukemia): 25.7 µM | TGI (COLO 205 colon): 26.7 µM | TGI (DU-145 prostate): 30.1 µM | TGI (EKVX NSCLC): 31.1 µM | TGI (HCC-2998 colon): 22.1 µM | TGI (HCT-116 colon): 26 µM | TGI (HCT-15 colon): 27 µM | TGI (HL-60(TB) leukemia): 13.6 µM | TGI (HOP-62 NSCLC): 35.5 µM | TGI (HOP-92 NSCLC): 23.1 µM | TGI (HS 578T breast): 32.9 µM | TGI (HT29 colon): 24.7 µM | TGI (IGROV1 ovarian): 29.7 µM | TGI (K-562 leukemia): 20.9 µM | TGI (KM12 colon): 28.2 µM | TGI (LOX IMVI melanoma): 31.4 µM | TGI (M14 melanoma): 27.4 µM | TGI (MALME-3M melanoma): 28.2 µM | TGI (MCF7 breast): 24.7 µM | TGI (MDA-MB-231 breast): 26.1 µM | TGI (MDA-MB-435): 28.4 µM | TGI (MDA-N): 29.8 µM | TGI (MOLT-4 leukemia): 20 µM | TGI (NCI-H226 lung): 29.9 µM | TGI (NCI-H23 lung): 27.7 µM | TGI (NCI-H460 lung): 27.9 µM | TGI (NCI-H522 lung): 24.7 µM | TGI (NCI/ADR-RES ovarian): 24.7 µM | TGI (OVCAR-3 ovarian): 28 µM | TGI (OVCAR-4 ovarian): 25 µM | TGI (OVCAR-5 ovarian): 29.5 µM | TGI (OVCAR-8 ovarian): 28.2 µM | TGI (PC-3 prostate): 24.4 µM | TGI (RPMI-8226 leukemia): 22.1 µM | TGI (RXF 393 renal): 23.7 µM | TGI (SF-268 CNS): 29.9 µM | TGI (SF-295 CNS): 30.2 µM | TGI (SF-539 CNS): 31.3 µM | TGI (SK-MEL-2 melanoma): 26.1 µM | TGI (SK-MEL-28 melanoma): 29.7 µM | TGI (SK-MEL-5 melanoma): 27.1 µM | TGI (SK-OV-3 ovarian): 31.1 µM | TGI (SN12C renal): 28.8 µM | TGI (SNB-19 CNS): 27.4 µM | TGI (SNB-75 CNS): 30.7 µM | TGI (SR leukemia): 23.4 µM | TGI (SW-620 colon): 27.4 µM | TGI (T-47D breast): 29.8 µM | TGI (TK-10 renal): 29.6 µM | TGI (U251 CNS): 26.3 µM | TGI (UACC-257 melanoma): 25.8 µM | TGI (UACC-62 melanoma): 25.5 µM | TGI (UO-31 renal): 27.2 µM
